In PubChem BioAssay (NCI):
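Interpolation was linear, between the two tested concentrations surrounding the appropriate level; five concentrations were tested over 48 hours in 96-well plates. GI50 is the concentration that inhibits growth by half. TGI: concentration producing complete growth inhibition.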

How the values were obtained:
Test in all cases: NCI anticancer screen, dose series, 48 h
[1] = tested on: RXF 393 renal
[2] = tested on: OVCAR-8 ovarian
[3] = tested on: BT-549 breast
[4] = tested on: U251 CNS
[5] = tested on: IGROV1 ovarian
[6] = tested on: TK-10 renal
[7] = tested on: RPMI-8226 leukemia
[8] = tested on: NCI-H460 lung
[9] = tested on: SN12C renal
[10] = tested on: SK-MEL-5 melanoma

Row | Structure (SMILES) | GI50 [1] [µM] | TGI [1] [µM] | GI50 [2] [µM] | TGI [2] [µM] | GI50 [3] [µM] | TGI [3] [µM] | GI50 [4] [µM] | TGI [4] [µM] | GI50 [5] [µM] | TGI [5] [µM] | GI50 [6] [µM] | TGI [6] [µM] | GI50 [7] [µM] | TGI [7] [µM] | GI50 [8] [µM] | TGI [8] [µM] | GI50 [9] [µM] | TGI [9] [µM] | TGI [10] [µM] | GI50 [10] [µM]
1 | CN1CC[C@@H](c2c(O)cc(O)c3c(=O)cc(-c4ccccc4Cl)oc23)[C@@H]1CO | 0.192 | 0.43 | 0.321 | > 10 | 0.38 | 2.52 | 0.258 | > 10 | 0.282 | > 10 | 0.293 | > 10 | 0.362 | 2.73 | 0.318 | > 10 | 0.299 | > 10 | – | –
2 | C=C1C(=O)OC2/C=C(/C)C(OC(C)=O)CC(O)/C(C)=C\C(OC(=O)/C(C)=C\C)C12 (stereo unspecified) | – | > 100 | – | > 100 | – | > 100 | – | > 100 | – | > 100 | – | > 100 | – | > 100 | – | > 100 | – | > 100 | > 100 | –
3 | COc1ccc(C(=O)c2cc3c(N)c(C(=O)Nc4cccc5ccccc45)sc3nc2C)cc1 | 0.088 | > 50 | 0.285 | > 50 | 0.379 | > 50 | 0.194 | > 50 | 0.268 | > 50 | > 50 | > 50 | 0.184 | – | 0.18 | > 22.5 | 0.32 | > 50 | 1.4 | 0.193
4 | N#Cc1c(-c2ccc(Cl)cc2)c2c(n(C3OC(CO)C(O)C(O)C3O)c1=S)CCC2 (stereo unspecified) | – | 63.2 | – | – | – | 65 | – | 84.9 | – | > 100 | – | > 100 | – | > 100 | – | > 100 | – | > 100 | 26 | –
5 | Cc1ccc(CNc2c3ccccc3nc3cc(NC(=O)CCN4CCCC4)ccc23)cc1 | 0.414 | 1.57 | – | – | 1.47 | 2.88 | 0.688 | 2.05 | – | – | 1.23 | 2.85 | 0.412 | 1.94 | 0.365 | 1.25 | 0.479 | 1.74 | 2.89 | 1.54
6 | Nc1[nH]nc2nc(-c3cccs3)cc(C(F)(F)F)c12 | 18.9 | > 25 | > 25 | > 25 | > 24.1 | > 25 | > 23.7 | > 25 | > 25 | > 25 | > 19.2 | > 25 | > 25 | > 25 | > 25 | > 25 | > 25 | > 25 | > 25 | > 25
7 | COc1c(Cl)cc(NC(=S)C#N)cc1Cl | – | > 81.4 | – | > 69.3 | – | 39.5 | – | 43.6 | – | > 82.6 | – | > 100 | – | > 58.7 | – | 68.2 | – | 53.5 | 32.9 | –
8 | CC1=C(CO)C(=O)O[C@@H]([C@@H](C)[C@H]2CC[C@H]3[C@@H]4C[C@@H](O)[C@@]5(O)CC=CC(=O)[C@]5(C)[C@H]4CC[C@]23C)C1 | – | 68.6 | – | > 100 | – | 93.8 | – | > 100 | – | 31.6 | – | > 100 | – | 92.2 | – | 38.3 | – | > 100 | > 100 | –
9 | NC(=O)c1c(NC(=O)c2ccc3c(c2)OCO3)sc2c1CCC(=O)C2 | 1.88 | 5.36 | 1.75 | > 100 | 0.373 | 5.57 | 0.467 | > 100 | – | – | 3.32 | > 100 | 0.339 | 1.6 | – | – | 3.03 | > 100 | 3.17 | 1.77
10 | CC(C)(O)CC(=O)NCCn1ccc2ncnc(Nc3ccc(Oc4cccc(C(F)(F)F)c4)c(Cl)c3)c21 | 1.87 | 4.31 | 3.65 | > 10 | 5.52 | > 10 | 3.45 | > 10 | 1.26 | > 10 | 0.363 | > 10 | 4.68 | > 10 | 3.37 | > 10 | 2 | > 10 | > 10 | 2.84
11 | C=C1C(=O)OC2C1C(OC(=O)/C(C)=C/C)CC(O)(CCl)C1C(O)C3OC3(C)C21O (stereo unspecified) | – | 26 | – | 42.5 | – | > 50 | – | > 50 | – | > 50 | – | > 50 | – | > 50 | – | > 50 | – | > 50 | > 50 | –
12 | COc1ccc2c(c1)C(=O)c1c-2c(N(C)C)nc2ccccc12 | > 100 | > 100 | > 100 | > 100 | > 100 | > 100 | > 100 | > 100 | > 100 | > 100 | 88.9 | > 100 | > 100 | > 100 | > 100 | > 100 | 95.3 | > 100 | > 100 | > 100
13 | COc1ccc(/C=C2\CCCC3=C2NC(N)=NC3c2ccc(OC)c(OC)c2)cc1OC (stereo unspecified) | 3.96 | 24.2 | 2.08 | > 100 | 3.62 | > 100 | 2.53 | > 91.9 | 28.9 | > 100 | 4.68 | 27.9 | 0.837 | 15.4 | 25.2 | > 100 | > 39.6 | > 100 | > 100 | 3.48
14 | CCc1ccc(NC(=O)COC(=O)c2cc([N+](=O)[O-])ccc2Sc2nnnn2C)cc1 | 24 | 62 | – | – | 4.42 | 26.6 | 15.4 | 34.1 | 24.3 | 95.7 | 46.4 | > 100 | 6.73 | 41.4 | 13 | 33.3 | 33.2 | > 100 | 18 | 4.64
